Data published in publication PMC7156458, “Synthetic biology based construction of biological activity-related library of fungal decalin-containing diterpenoid pyrones” (Nature Communications, 2020).
Where two headings read alike, the source gives them in different places.

How the values were obtained:
MCF-7 cells = experiment: cell cytotoxic effects against MCF-7 cells (72 h), A490; format: cell-based, human
[1] = cytotoxicity in Drosophila DL1 cells; format: cell-based; conditions: Drosophila, DL1 cells
Method: (§1) We screened the DDPs on the Drosophila assay system for cytotoxicity, inhibitory activity of innate immune signalling and insecticidal activity. The cytotoxicity of the DDPs was evaluated using two cell lines, embryonic macrophage-derived DL1 cells[58]–[60] and larval blood cell-derived l(2)mbn cells, and their IC50 values are listed in Supplementary Table 23.

DL1 cells = experiment: cytotoxicity in Drosophila DL1 cells; format: cell-based; conditions: DL1 cells; for % viability, viability 2: replicate 2, relative to DMSO 1%; for % viability, viability 1: replicate 1, relative to DMSO 1%; for IC50: cytotoxicity
Method: as §1

[2] = cytotoxicity in Drosophila l(2)mbn cells; format: cell-based; conditions: Drosophila
Method: as §1

l(2)mbn cells = experiment: cytotoxicity in Drosophila l(2)mbn cells; format: cell-based; conditions: for Luminescence Raw1: replicate 1; for Luminescence Raw2: replicate 2; for % viability, viability 2: replicate 2, relative to DMSO 1%; for % viability, viability 1: replicate 1, relative to DMSO 1%
Method: as §1

[3] = system: human immunodeficiency virus-1 (HIV-1); experiment: anti-HIV MAGI assay; format: cell-based; conditions: Human immunodeficiency virus 1, MAGI, anti-HIV
From the text: We examined the inhibitory activities of DDPs against various species of bacteria (both gram-negative and gram-positive bacteria), fungi and viruses. […] In contrast, preliminary screening of the DDPs for anti-viral agents with hepatitis B virus (HBV), measles virus (MV), Epstein-Barr virus (EBV), herpes simplex virus (HSV) and human immunodeficiency virus-1 (HIV-1) indicated their selective inhibition of HIV.

[4] = replicate 1, relative to DMSO 1%, read-out: % viability, viability 1
[5] = replicate 2, relative to DMSO 1%, read-out: % viability, viability 2

## C=C1CCC2C(C)(CCC=C(C)C)C(O)CCC2(C)C1Cc1c(OC)oc(C)c(C)c1=O (centres unmarked) [Compound 11]
MCF-7 cells
  cytotoxicity against the bulk of MCF-7 cells: dose-dependent cytotoxicity
MCF-7 cells; Homo sapiens, MCF7, 72 h, MCF-7, 72 h, 0.1 µM (DMSO 0.002%), read-out: A490 (control =1) ave
  viability at 0.1 µM: 92.2%
MCF-7 cells; Homo sapiens, MCF7, 72 h, MCF-7, 72 h, 1 µM (DMSO 0.02%), read-out: A490 (control =1) ave
  viability at 1 µM: 34.3%
MCF-7 cells; Homo sapiens, MCF7, 72 h, MCF-7, 72 h, 10 µM (DMSO 0.2%), read-out: A490 (control =1) ave
  viability at 10 µM: 21.4%
MCF-7 cells; MCF-7, 72 h, 0.1 µM (DMSO 0.002%), control 1.064
  A490 ave: 0.981
MCF-7 cells; MCF-7, 72 h, 1 µM (DMSO 0.02%), control 1.104
  A490 ave: 0.379
MCF-7 cells; MCF-7, 72 h, 10 µM (DMSO 0.2%), control 1.049
  A490 ave: 0.224
[1]; [4]
  viability at 0.04 µM: 216%
  viability at 10 µM: 20.5%
  viability at 20 µM: 22.4%
[1]; [5]
  viability at 0.04 µM: 202%
  viability at 10 µM: 22.2%
  viability at 20 µM: 22.4%
[1]; 0.2 µM, replicate 1, relative to DMSO 1%, read-out: % viability, viability 1
  viability at 0.2 µM: 191%
DL1 cells; 0.04 µM, replicate 1
  Luminescence Raw1: 2962736
DL1 cells; 0.04 µM, replicate 2
  Luminescence Raw2: 2763628
DL1 cells; 0.2 µM, replicate 1
  Luminescence Raw1: 2626203
DL1 cells; 0.2 µM, replicate 2
  Luminescence Raw2: 2499962
DL1 cells; 0.2 µM
  % viability, viability 2: 182.283%
DL1 cells; 1 µM, replicate 1
  Luminescence Raw1: 427059
DL1 cells; 1 µM
  % viability, viability 1: 31.1387%
  % viability, viability 2: 35.2139%
DL1 cells; 1 µM, replicate 2
  Luminescence Raw2: 482949
DL1 cells; 4 µM, replicate 1
  Luminescence Raw1: 281027
DL1 cells; 4 µM
  % viability, viability 1: 20.4909%
  % viability, viability 2: 22.2524%
DL1 cells; 4 µM, replicate 2
  Luminescence Raw2: 305186
DL1 cells; 10 µM, replicate 1
  Luminescence Raw1: 281749
DL1 cells; 10 µM, replicate 2
  Luminescence Raw2: 304825
DL1 cells; 20 µM, replicate 1
  Luminescence Raw1: 307710
DL1 cells; 20 µM, replicate 2
  Luminescence Raw2: 306988
DL1 cells; average±SEM
  IC50: 400 ± 20 nM
DL1 cells; read-out: IC50 (1), replicate 1
  IC50: 380 nM
DL1 cells; read-out: IC50 (2), replicate 2
  IC50: 414 nM
DL1 cells; read-out: IC50 Average, average of two replicates
  IC50: 397 nM
[2]; 0.04 µM, replicate 1, relative to DMSO 1%, read-out: % viability, viability 1
  viability at 0.04 µM: 78.2%
[2]; [4]
  viability at 0.2 µM: 91.6%
  viability at 20 µM: 2.02%
[2]; [5]
  viability at 0.2 µM: 70.9%
  viability at 20 µM: 2.72%
l(2)mbn cells; 0.04 µM
  Luminescence Raw1: 4909467
  Luminescence Raw2: 3629794
  % viability, viability 2: 57.8063%
l(2)mbn cells; 0.2 µM
  Luminescence Raw1: 5752008
  Luminescence Raw2: 4449089
l(2)mbn cells; 1 µM
  Luminescence Raw1: 2597064
  % viability, viability 1: 41.3596%
  Luminescence Raw2: 1297263
  % viability, viability 2: 20.6596%
l(2)mbn cells; 4 µM
  Luminescence Raw1: 133995
  % viability, viability 1: 2.134%
  Luminescence Raw2: 142288
  % viability, viability 2: 2.266%
l(2)mbn cells; 10 µM
  Luminescence Raw1: 107674
  % viability, viability 1: 1.715%
  Luminescence Raw2: 99742
  % viability, viability 2: 1.588%
l(2)mbn cells; 20 µM
  Luminescence Raw1: 126784
  Luminescence Raw2: 170772
l(2)mbn cells; cytotoxicity, average±SEM
  IC50: 470 ± 210 nM
l(2)mbn cells; read-out: IC50 (1), cytotoxicity, replicate 1
  IC50: 681 nM
l(2)mbn cells; read-out: IC50 (2), cytotoxicity, replicate 2
  IC50: 259 nM
l(2)mbn cells; read-out: IC50 Average, cytotoxicity, average of two replicates
  IC50: 470 nM
[3]; MAGI assay, read-out: EC50
  EC50: < 200 nM
[3]; single determinations, read-out: Efficacy (EC50)
  EC50: > 10000 nM
